Measurements reported in ChEMBL document CHEMBL1155683, “Dolastatin 3 and two novel cyclic peptides from a palauan collection of Lyngbya majuscula” (J Nat Prod, 2000).
The source made the active and inactive calls. The calls are words filed in the database; no cut-off is given here.

Key:
[1] = molecular target: Human immunodeficiency virus type 1 integrase (Human immunodeficiency virus 1) (UniProt Q7ZJM1); assay: Inhibition of HIV1 integrase strand transfer activity at […]
[2] = molecular target: Human immunodeficiency virus type 1 integrase (Human immunodeficiency virus 1) (UniProt Q7ZJM1); assay: Inhibition of HIV1 integrase long terminal repeat cleavage activity at […]
[3] = molecular target: T1, Human immunodeficiency virus type 1 integrase (Human immunodeficiency virus 1, UniProt Q7ZJM1); assay: Inhibition of HIV1 integrase strand transfer activity
[4] = molecular target: T1, Human immunodeficiency virus type 1 integrase; assay: Inhibition of HIV1 integrase long terminal repeat cleavage activity

T1 sequence (Q7ZJM1 whole entry): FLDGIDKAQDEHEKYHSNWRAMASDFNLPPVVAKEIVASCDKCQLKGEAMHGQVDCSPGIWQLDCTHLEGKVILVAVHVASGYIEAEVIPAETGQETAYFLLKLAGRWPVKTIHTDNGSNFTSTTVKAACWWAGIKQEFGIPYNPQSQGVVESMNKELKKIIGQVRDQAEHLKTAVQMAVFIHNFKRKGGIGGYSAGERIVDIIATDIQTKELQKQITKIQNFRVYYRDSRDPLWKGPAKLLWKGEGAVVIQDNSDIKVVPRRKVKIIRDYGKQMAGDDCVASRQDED
Sequence of Human immunodeficiency virus type 1 integrase (Human immunodeficiency virus 1) (Q7ZJM1 as listed by the source): as the sequence (Q7ZJM1 whole entry) above

Row | SMILES | Activity [1] | Activity [2] | IC50 [3] [mM] | IC50 [4] [mM]
1 | CCC(C)[C@@H]1NC(=O)c2csc(n2)CNC(=O)c2csc(n2)[C@H](CCC(N)=O)NC(=O)[C@H](CC(C)C)NC(=O)[C@@H]2CCCN2C1=O (some centres undefined) | inactive | inactive |  | 
2 | CC(C)C[C@@H]1NC(=O)[C@@H]2CCCN2C(=O)[C@H](C(C)C)NC(=O)c2csc(n2)CNC(=O)c2csc(n2)[C@H](CCC(N)=O)NC1=O [DOLASTATIN 3] |  |  | 4.1 | 5
